Read-outs that look alike come from different tables or passages of the source. Values belong to the molecule of their own block, whether it stands above or below them.
Target: T1, SIRT1 (Homo sapiens, UniProt Q96EB6)
T1 sequence (Q96EB6 1-747): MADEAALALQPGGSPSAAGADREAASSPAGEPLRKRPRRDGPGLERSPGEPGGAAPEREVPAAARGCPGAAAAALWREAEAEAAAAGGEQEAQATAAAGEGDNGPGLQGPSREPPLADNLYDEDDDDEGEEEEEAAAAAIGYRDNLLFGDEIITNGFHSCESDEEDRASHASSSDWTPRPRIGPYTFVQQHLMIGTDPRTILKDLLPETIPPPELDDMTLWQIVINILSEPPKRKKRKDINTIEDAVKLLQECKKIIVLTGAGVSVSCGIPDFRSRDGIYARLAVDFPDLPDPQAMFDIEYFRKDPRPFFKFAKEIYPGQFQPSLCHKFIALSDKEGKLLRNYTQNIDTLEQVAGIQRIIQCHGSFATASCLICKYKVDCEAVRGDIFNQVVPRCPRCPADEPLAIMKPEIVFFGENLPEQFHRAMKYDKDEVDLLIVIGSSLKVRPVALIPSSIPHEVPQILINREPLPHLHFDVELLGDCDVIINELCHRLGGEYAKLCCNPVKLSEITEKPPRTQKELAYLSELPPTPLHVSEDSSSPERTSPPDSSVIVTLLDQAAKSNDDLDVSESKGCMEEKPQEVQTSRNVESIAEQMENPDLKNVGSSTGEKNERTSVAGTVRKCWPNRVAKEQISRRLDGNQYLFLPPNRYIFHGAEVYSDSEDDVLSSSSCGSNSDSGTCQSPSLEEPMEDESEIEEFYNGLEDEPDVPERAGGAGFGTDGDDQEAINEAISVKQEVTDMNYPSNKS
Experiment: Trp mass spectrometry assay of SIRT1 activation
Format: biochemical
Details: for TRP Activity (EC1.5): EC1.5 = concentration that results in 150% activation of SIRT1
Outline: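 N-terminal His-tagged human SIRT1 (10 nM, E. coli BL21(DE3)) with 0.5 μM Ac-RHKK(Ac)W-NH2 peptide and 120 μM βNAD+, 25 min at 25 °C in HEPES pH 7.5, formic acid stop. OAADPR or deacetylated peptide quantified by mass spectrometry; EC1.5 (50% activity increase over control) and Percent Maximum Activation reported.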

[1] = Trp mass spectrometry assay, concentration of test compound giving 150% activation of SIRT1
[2] = Trp mass spectrometry assay, EC1.5 = concentration of test compound that results in 150% activation of SIRT1
[3] = concentration giving 150% activation of SIRT1, Trp peptide substrate
[4] = Trp peptide assay, maximum activity relative to control (100%), read-out: TRP MAX RESP (percent maximum fold activation)

Compound: Cc1nc(NC(=O)N2c3nc(-c4cncc(Cl)c4)ccc3N3CCC[C@H]2C3)sc1C [Example 402]
Tryp AVG EC1.5 (μM) [1]: A (A (EC1.5<1 μM))

Compound: Cc1ccc(-c2ccc3c(n2)N(C(=O)Nc2cccnn2)[C@H]2CCCN3C2)cn1 [Example 467]
Tryp AVG EC1.5 (μM) [2]: B (B (EC1.5 1-25 μM))

Compound: C#CNc1nccc(NC(=O)N2c3nc(-c4cccc(C5(C(F)(F)F)N=N5)c4)ccc3N3CC[C@H]2C3)n1 [Example 809]
Tryp AVG EC1.5 (μM) [3]: B (B (EC1.5 1-25 μM)) | Emax (percent maximum fold activation of SIRT1, Trp peptide substrate, read-out: Tryp % Fold Act): > 150%

Compound: Cc1ccc(-c2ccc3c(n2)N(C(=O)Nc2cncc(F)c2)[C@H]2CCCN3C2)cn1 [Example 477]
Tryp AVG EC1.5 (μM) [2]: B (B (EC1.5 1-25 μM))

Compound: NS(=O)(=O)c1ccc(NC(=O)N2c3nc(-c4cccc(C(F)(F)F)c4)ccc3N3CC[C@H]2C3)cc1 [Example 643]
Tryp AVG EC1.5 (μM) [3]: A (A (EC1.5<1 μM))

Compound: Cc1cc(-c2ccc3c(n2)N(C(=O)Nc2cncc(C)n2)[C@H]2CCCN3C2)ccn1 [(9S)-N-(6-methylpyrazin-2-yl)-5-(2-methylpyridin-4-yl)-1,6,8-triazatricyclo[7.3.1.0 {2,7}]trideca-2(7),3,5-triene-8-carboxamide]
TRP Activity (EC1.5) (Trp peptide assay): B (B (EC1.5 1-25 μM)) | Emax [4]: > 150%

Compound: CC(=O)O[C@H]1CN2C[C@H]1N(C(=O)Nc1ccccn1)c1nc(-c3cccc(C(F)(F)F)c3)ccc12 [Example 634]
Tryp AVG EC1.5 (μM) [3]: C (C (EC1.5>25 μM))

Compound: COc1cnc(NC(=O)N2c3nc(-c4ccnc(C)c4)ccc3N3CC[C@H]2C3)cn1 [Example 500]
Tryp AVG EC1.5 (μM) [2]: A (A (EC1.5<1 μM))

Compound: Cn1nccc1-c1ccc2c(n1)N(C(=O)Nc1cnccn1)[C@H]1CCN2C1 [Example 414]
Tryp AVG EC1.5 (μM) [1]: B (B (EC1.5 1-25 μM))

Compound: Cc1ccncc1-c1ccc2c(n1)N(C(=O)Nc1cnccn1)[C@H]1CCCN2C1 [Example 513]
Tryp AVG EC1.5 (μM) [2]: C (C (EC1.5>25 μM))

Compound: O=C(Nc1ccc(F)cn1)N1c2nc(-c3ccnc(N4CCC(F)(F)C4)c3)ccc2N2CC[C@H]1C2 [Example 425]
Tryp AVG EC1.5 (μM) [2]: A (A (EC1.5<1 μM))

Compound: O=C1CN2C[C@H]1N(C(=O)Nc1cccc(-c3cnco3)c1)c1nc(-c3cccc(C(F)(F)F)c3)ccc12 [Example 692]
Tryp AVG EC1.5 (μM) [3]: A (A (EC1.5<1 μM))

Compound: Cc1nc(NC(=O)N2c3nc(-c4cncc(F)c4)ccc3N3CCC2CC3)sc1C [Example 577]
Tryp AVG EC1.5 (μM) [2]: B (B (EC1.5 1-25 μM))

Compound: O=C(Nc1ccccn1)N1c2nc(N3CCC(C(F)(F)F)C3)ccc2N2CC[C@H]1C2 (stereo partly drawn) [(9S)-N-(pyridin-2-yl)-5-[(3S)-3-(trifluoromethyl)pyrrolidin-1-yl]-1,6,8-triazatricyclo[7.2.1.0^{2,7}]dodeca-2(7),3,5-triene-8-carboxamide]
TRP Activity (EC1.5) (Trp peptide assay): B (B (EC1.5 1-25 μM)) | Emax [4]: > 150%

Compound: O=C(Nc1cnccn1)N1c2nc(-c3cccc(C(F)(F)F)c3)ccc2N2CCC1CC2 [Example 472]
Tryp AVG EC1.5 (μM) [2]: A (A (EC1.5<1 μM))

Compound: O=C(Nc1cnccn1)N1c2nc(-c3cc(F)cc(F)c3)ccc2N2CC[C@H]1C2 [Example 397]
Tryp AVG EC1.5 (μM) [1]: C (C (EC1.5>25 μM))

Compound: Cc1ccncc1-c1ccc2c(n1)N(C(=O)Nc1ccncn1)[C@H]1CCCN2C1 [Example 518]
Tryp AVG EC1.5 (μM) [2]: C (C (EC1.5>25 μM))

Compound: Cc1cnccc1NC(=O)N1c2nc(C3CCCC(C(F)(F)F)C3)ccc2N2CC[C@H]1C2 (stereo partly shown) [Example 100]
Tryp AVG EC1.5 (μM) (Trp peptide substrate, concentration giving 150% activation of SIRT1): B (B (EC1.5 1-25 μM))

Compound: COc1cc(NC(=O)N2c3nc(-c4cccc(N(C)C)c4)ccc3N3CCC[C@H]2C3)ncn1 [Example 385]
Tryp AVG EC1.5 (μM) [1]: A (A (EC1.5<1 μM))

Compound: O=C(Nc1ccccn1)N1c2nc(-c3cccc(C(F)(F)F)n3)ccc2N2CC[C@H]1C2 [Example 336]
Tryp AVG EC1.5 (μM) [1]: B (B (EC1.5 1-25 μM))

Compound: C[C@@H]1CN(c2ccc3c(n2)N(C(=O)Nc2cnccn2)[C@H]2CCN3C2)CCO1 [(9S)-5-[(2R)-2-methylmorpholin-4-yl]-N-(pyrazin-2-yl)-1,6,8-triazatricyclo[7.2.1.0 {2,7}]dodeca-2,4,6-triene-8-carboxamide]
TRP Activity (EC1.5) (Trp peptide assay): B (B (EC1.5 1-25 μM)) | Emax [4]: > 150%

Compound: O=C(Nc1cccnc1)N1c2nc(-c3cccnc3)ccc2N2CCC[C@H]1C2 [Example 455]
Tryp AVG EC1.5 (μM) [2]: B (B (EC1.5 1-25 μM))

Compound: CC(C)n1cc(-c2ccc3c(n2)N(C(=O)Nc2cccnc2)[C@H]2CCN3C2)cn1 [Example 494]
Tryp AVG EC1.5 (μM) [2]: B (B (EC1.5 1-25 μM))

Compound: CS(=O)(=O)c1cccc(-c2ccc3c(n2)N(C(=O)Nc2cnccn2)[C@H]2CCN3C2)c1 [Example 415]
Tryp AVG EC1.5 (μM) [1]: A (A (EC1.5<1 μM))

Compound: COCC(C)NC(=O)c1ccc2c(n1)N(C(=O)Nc1ccccn1)[C@H]1CCN2C1 (stereo partly drawn) [(9S)-5-N-(1-methoxypropan-2-yl)-8-N-(pyridin-2-yl)-1,6,8-triazatricyclo[7.2.1.0^{2,7}]dodeca-2(7),3,5-triene-5,8-dicarboxamide]
TRP Activity (EC1.5) (Trp peptide assay): B (B (EC1.5 1-25 μM)) | Emax [4]: > 150%

Compound: CC[C@@H]1CN(c2ccc3c(n2)N(C(=O)Nc2cnccn2)[C@H]2CCN3C2)CCO1 [(9S)-5-[(2R)-2-ethylmorpholin-4-yl]-N-(pyrazin-2-yl)-1,6,8-triazatricyclo[7.2.1.0^{2,7}]dodeca-2(7),3,5-triene-8-carboxamide]
TRP Activity (EC1.5) (Trp peptide assay): B (B (EC1.5 1-25 μM)) | Emax [4]: > 150%

Compound: Cc1nc(NC(=O)N2c3nc(-c4ccccc4C#N)ccc3N3CCC[C@H]2C3)sc1C [Example 476]
Tryp AVG EC1.5 (μM) [2]: B (B (EC1.5 1-25 μM))

The remaining lines, values ahead:

Tryp AVG EC1.5 (μM) [3]: B (B (EC1.5 1-25 μM))
Compound: O=C(Nc1cncc(F)c1)N1c2nc(-c3cncc(C(F)(F)F)c3)ccc2N2C[C@@H](O)[C@H]1C2 [Example 691]

Tryp AVG EC1.5 (μM) [3]: A (A (EC1.5<1 μM))
Compound: COC(=O)c1cccc(NC(=O)N2c3nc(-c4cccc(C(F)(F)F)c4)ccc3N3CC[C@H]2C3)c1 [Example 626]

Tryp AVG EC1.5 (μM) [3]: B (B (EC1.5 1-25 μM))
Compound: O=C(NCCCCn1ccnc1)N1c2nc(-c3cccc(C(F)(F)F)c3)ccc2N2CC[C@H]1C2 [Example 689]

TRP Activity (EC1.5) (Trp peptide assay): A (A (EC1.5<1 μM)) | Emax [4]: > 150%
Compound: Cc1cc(-c2ccc3c(n2)N(C(=O)Nc2cncc(F)n2)[C@H]2CCN3C2)ccn1 [(9S)-N-(6-fluoropyrazin-2-yl)-5-(2-methylpyridin-4-yl)-1,6,8-triazatricyclo[7.2.1.0 {2,7}]dodeca-2(7),3,5-triene-8-carboxamide]

Tryp AVG EC1.5 (μM) [3]: A (A (EC1.5<1 μM))
Compound: CC(C)(C)OC(=O)NCCCc1ccc(NC(=O)N2c3nc(-c4cccc(C(F)(F)F)c4)ccc3N3CCC[C@H]2C3)cc1-c1cnco1 [Example 752]

Tryp AVG EC1.5 (μM) [2]: A (A (EC1.5<1 μM))
Compound: O=C(Nc1cncc(F)c1)N1c2nc(-c3cccc(N4CCOCC4)c3)ccc2N2CCC[C@H]1C2 [Example 559]

Tryp AVG EC1.5 (μM) [3]: A (A (EC1.5<1 μM))
Compound: O=C(Nc1cccc(-c2cnco2)c1)N1c2nc(-c3cncc(C(F)(F)F)c3)ccc2N2C[C@@H](O)[C@H]1C2 [Example 709]

Tryp AVG EC1.5 (μM) [2]: B (B (EC1.5 1-25 μM))
Compound: O=C(Nc1ccccn1)N1c2nc(-c3ccnc(N4CC[C@@H](F)C4)c3)ccc2N2CC[C@H]1C2 [Example 448]

Tryp AVG EC1.5 (μM) [2]: A (A (EC1.5<1 μM))
Compound: O=C(Nc1cccnc1)N1c2nc(-c3cncc(C(F)(F)F)c3)ccc2N2CC[C@H]1C2 [Example 556]

Tryp AVG EC1.5 (μM) [2]: A (A (EC1.5<1 μM))
Compound: Cc1cncc(-c2ccc3c(n2)N(C(=O)Nc2cccnc2)[C@H]2CCCN3C2)c1 [Example 515]

Tryp AVG EC1.5 (μM) [3]: B (B (EC1.5 1-25 μM))
Compound: Cc1nc(NC(=O)N2c3nc(-c4cncc(C(F)(F)F)c4)ccc3N3C[C@@H](O)[C@H]2C3)sc1C [Example 697]

TRP Activity (EC1.5) (Trp peptide assay): A (A (EC1.5<1 μM)) | Emax [4]: > 150%
Compound: Cc1cc(-c2ccc3c(n2)N(C(=O)Nc2cnccn2)[C@H]2CCCN3C2)ccn1 [(9S)-5-(2-methylpyridin-4-yl)-N-(pyrazin-2-yl)-1,6,8-triazatricyclo[7.3.1.0 {2,7}]trideca-2(7),3,5-triene-8-carboxamide]

TRP Activity (EC1.5) (Trp peptide assay): B (B (EC1.5 1-25 μM)) | Emax [4]: > 150%
Compound: Cc1ccnc(NC(=O)N2c3nc(-c4ccnc(C)c4)ccc3N3CC[C@H]2C3)c1 [(9S)-N-(4-methylpyridin-2-yl)-5-(2-methylpyridin-4-yl)-1,6,8-triazatricyclo[7.2.1.0^2,7]dodeca-2,4,6-triene-8-carboxamide]

Tryp AVG EC1.5 (μM) [1]: C (C (EC1.5>25 μM))
Compound: COc1cc(NC(=O)N2c3nc(-c4ccnc(F)c4)ccc3N3CC[C@H]2C3)ncn1 [Example 358]

Tryp AVG EC1.5 (μM) [1]: B (B (EC1.5 1-25 μM))
Compound: O=C(Nc1ccc(F)cn1)N1c2nc(-c3cccc(C(F)(F)F)n3)ccc2N2CC[C@H]1C2 [Example 340]

Tryp AVG EC1.5 (μM) [2]: B (B (EC1.5 1-25 μM))
Compound: N#Cc1ccccc1-c1ccc2c(n1)N(C(=O)Nc1cccnc1)[C@H]1CCCN2C1 [Example 438]

— patent publication US9834558B2, “Substituted bridged urea analogs as sirtuin modulators” (GLAXOSMITHKLINE LLC, priority 2013, dated 2017)
